# Data from US20140051744A1, “Markers For Assessing the Susceptibility of Cancer to Survivin-Targeting miRNA Treatment” (The Regents of the University of Colorado, A Body Corporate, priority 2012, published 2014).
# Assays:
# Survivin [1] = experiment: Western blot of Survivin protein after miRNA mimic transfection in erbB2+ breast cancer cells; type: cell-based, human; conditions: mimic transfection 24 hrs
# Excerpt: (§1) FIGS. 1A-B. Transfection of the mimics of miR-203 and/or miR-542-3p dramatically increases their expression levels and specifically down-regulates Survivin, but not other functionally related molecules, such as Mcl-1 and Bcl-xL. SKBR3.B3.1 and […] cells were transfected with either control miRNA mimic, or miR-203 mimic, or miR-542-3p mimic alone, or the combination of miR-203 and miR-542-3p mimics for 24 hrs. (FIG. 1A) Cells were collected and subjected to total RNA extraction, inclusive of the small RNA fraction. The expression levels of miR-203 and miR-542-3p were measured by qRT-PCR using TaqMan miRNA assays. All results were normalized with the internal control RNU6B. Bars, SD. […] (FIG. 1B) Cells were collected and subjected to western blot analyses with specific antibodies directed against Survivin, Mcl-1, Bcl-xL, or β-actin. The densitometry analyses of Survivin signals were shown underneath, and the arbitrary numbers indicate the intensities of each cell line relative to controls, defined as 1.0.
# MDA-MB-453 and BT474 cells (FIG. 2A), and BT474-HR20 cells (FIG. 2B) were transfected with either control miRNA mimic, or miR-203 mimic, or miR-542-3p mimic alone, or the combination of miR-203 and miR-542-3p mimics for 24 hrs. Cells were then collected and subjected to western blot analyses with specific antibodies directed against Survivin, Mcl-1, Bcl-xL, or β-actin. The densitometry analyses of Survivin signals were shown underneath, and the arbitrary numbers indicate the intensities of each cell line relative to controls, defined as 1.0.
# (§2) Transfection of cells with miRNA mimic. Cell transfection with the miRIDIAN miRNA mimics or negative controls was carried out using HiPerFect Transfection Reagent (QIAGEN) according to the manufacturer's protocol.
# (§3) Western blot analysis. Protein expression levels were determined by western blot analysis as described previously (Wang et al., 2010; Huang et al., 2009; Huang et al., 2011). Equal amounts of total cell lysates were boiled in Laemmli SDS-sample buffer, resolved by SDS-PAGE, transferred to nitrocellulose membrane (Bio-Rad Laboratories, Hercules, Calif.), and probed with the primary antibodies described in the figure legends. After the blots were incubated with horseradish peroxidase-labeled secondary antibody, the signals were detected using the enhanced chemiluminescence reagents (GE Healthcare Bio-Sciences Corp., Piscataway, N.J.).
# Mcl-1 = experiment: Western blot of Mcl-1 protein after miRNA mimic transfection; type: cell-based, human; conditions: SKBR3.B3.1 and SKBR3.B3.2 cells, mimic transfection 24 hrs
# Excerpt: as §1, with “The densitometry analyses of Survivin signals were shown underneath, and the arbitrary numbers indicate the intensities of each cell line relative to controls, defined as 1.0.” left out
# (§4) Western blot analysis. Protein expression levels were determined by western blot analysis as described previously (Wang et al., 2010; Huang et al., 2009; Huang et al., 2011). […] After the blots were incubated with horseradish peroxidase-labeled secondary antibody, the signals were detected using the enhanced chemiluminescence reagents (GE Healthcare Bio-Sciences Corp., Piscataway, N.J.).
# Bcl-xL = experiment: Western blot of Bcl-xL protein after miRNA mimic transfection; type: cell-based, human; conditions: SKBR3.B3.1 and SKBR3.B3.2 cells, mimic transfection 24 hrs
# Excerpt: as §1, with “The densitometry analyses of Survivin signals were shown underneath, and the arbitrary numbers indicate the intensities of each cell line relative to controls, defined as 1.0.” left out
# as §4
# [2] = system: miR-203 and miR-542-3p expression levels; experiment: qRT-PCR (TaqMan miRNA assays) of miRNA levels after mimic transfection; type: cell-based, human; conditions: SKBR3.B3.1 and SKBR3.B3.2 cells, 24 hrs, normalized to RNU6B, vs control mimic
# Excerpt: as §1
# Analysis of miRNA expression. […] The expression levels of miR-203 and miR-542-3p were then measured by quantitative real-time (qRT)-PCR using TaqMan MicroRNA Assays (Assay ID: 000507 and 001284, respectively; Applied Biosystems). […] The relative miRNA levels were calculated using the comparative Ct method (AACt) as reported (Howe et al., 2011). […]
# HCC cells = conditions: expression of miR-203 in HCC cells lacking their expression; cited from earlier work
# [3] = system: PARP cleavage and caspase-3 activation; experiment: Western blot of PARP cleavage and cleaved caspase-3 after mimic transfection plus paclitaxel; type: cell-based, human; conditions: SKBR3.B3.1 and SKBR3.B3.2 cells, mimic 24 hrs then paclitaxel 24 hrs; for paclitaxel-induced PARP cleavage and caspase-3 activation (cleaved caspase-3): vs paclitaxel alone in control mimic transfection
# Excerpt: (FIGS. 3A-B) SKBR3.B3.1 and SKBR3.B3.2 cells were transfected with either control miRNA mimic, or miR-203 mimic, or miR-542-3p mimic alone, or the combination of miR-203 and miR-542-3p mimics for 24 hrs. Cells were then untreated or treated with paclitaxel for another 24 hrs. Cells were collected and subjected to western blot analyses of PARP, cleaved caspase-3 (C-Caps-3), β-actin (FIG. 3A), or a specific apoptotic ELISA (FIG. 3B). C & D, BT474-HR20 cells were transfected with either control miRNA mimic, or miR-203 mimic, or miR-542-3p mimic alone, or the combination of miR-203 and miR-542-3p mimics for 24 hrs. Cells were then untreated or treated with paclitaxel for another 24 hrs. Cells were collected and subjected to western blot analyses of PARP, cleaved caspase-3 (C-Caps-3), or β-actin (FIG. 3C), or a specific apoptotic ELISA (FIG. 3D).
# as §2, §3
# [4] = system: cancer cell proliferation; conditions: ectopic expression; through G1 and G2/M cell cycle arrest; cited from earlier work
# 18rRNA = conditions: overexpression of miR-542-3p; cited from earlier work
# [5] = system: Src-transformed fibroblasts and human cancer cells; conditions: ectopic expression in Src-transformed fibroblasts and human cancer cells; cited from earlier work
# Survivin [6] = conditions: cells transfected with miR-542-3p mimics vs negative control-transfected cells; cited from earlier work
# [7] = MDA-MB-453, BT474 and BT474-HR20 cells
# [8] = SKBR3.B3.1 and SKBR3.B3.2 cells, vs control mimic
Substance,protein levels of Survivin (Survivin [1]; [7]),protein levels of Survivin (Survivin [1]; [8]),effect on MCl-1 protein (Mcl-1),effect on BCl-xL protein (Bcl-xL),expression levels of miR-203 and/or miR-542-3p following mimic(s) transfection [2],cell growth (HCC cells),paclitaxel-induced PARP cleavage and caspase-3 activation (cleaved caspase-3) [3],cancer cell proliferation [4],inhibition on Survivin compared with the other single mimic (Survivin [1]; SKBR3.B3.1 and SKBR3.B3.2 cells),18rRNA levels (18rRNA),tumor growth [5],gene down-regulation in microarray analysis (Survivin [6]),enhancement of paclitaxel-induced PARP cleavage and caspase-3 activation compared with the other single mimic [3]
"miR-203: miRIDIAN miRNA specific mimic of miR-203 (sequence GUGAAAUGUUUAGGACCACUAG, MIMAT0000264), purchased from Thermo Scientific Dharmacon (commercial miRIDIAN mimic, chemistry not given here)",able to down-regulate Survivin,clearly reduced the protein levels of Survivin,no effect,no effect,dramatically increased,inhibited cell growth,clearly enhanced paclitaxel-induced PARP cleavage,–,–,–,–,–,–
"miR-542-3p: miRIDIAN miRNA specific mimic of miR-542-3p (sequence UGUGACAGAUUGAUAACUGAAA, MIMAT0003389), purchased from Thermo Scientific Dharmacon (commercial miRIDIAN mimic, chemistry not given here)",able to down-regulate Survivin,clearly reduced the protein levels of Survivin,no effect,no effect,dramatically increased,–,clearly enhanced paclitaxel-induced PARP cleavage,inhibited cancer cell proliferation,more profound inhibition on Survivin than miR-203,significantly decreased,suppresses tumor growth,most down-regulated candidate gene was Survivin,more profound effects than miR-203
